Measurements from US20220348564A1, “PHENYL-[1,3]DIOXOLO[4,5-C]PYRIDINYL-PHENYL-, PHENYL-[1,3]DIOXOLO[4,5-C]PYRIDINYL-HETEROARYL-, OR PHENYL-(1,3)DIOXO[4,5-C]PYRIDINYL-PIPERIDINYL-METHYL-OXETANYLMETHYL-1H-BENZO[D]IMIDAZOLE-CARBOXYLIC ACID DERIVATIVES AND METHODS OF USING SAME” (Eccogene (Shanghai) Co., Ltd., priority 2021, published 2022).
Read-outs that look alike come from different tables or passages of the source.

Assays:
[1] = Pharmacokinetics in fasted SD rats (PO and IV); assay type: in vivo; conditions: rat, plasma; for clearance: read-out: IV parameters CL; for bioavailability: read-out: PO parameters F (%)
Experimental: Compounds of the present application were formulated in 0.50% MC, and administered via oral gavage (PO) at the dosages of 5 or 10 mg per kilogram body weight, or formulated in 5% DMSO:15% Solutol 80% (SBECD), and administered via intravenous injection (IV) at the dosages of 1 mg per kilogram body weight, in fasted SD rats. Plasma samples were collected at 0.25, 0.5, 1, 2, 4, 6, 8, and 24 hours post dosing (PO); and were collected at 0.083, 0.25, 0.5, 1, 2, 4, 6, 8, and 24 hours post dosing (IV). Compound concentration was determined by LC-MS and pharmacokinetics parameters were calculated by WinNonlin 8.2 using Non-Compartmental Analysis model.

human GLP-1 = molecular target: T1, human GLP-1 (Homo sapiens, UniProt P43220); experiment: h-GLP-1 activity assay (Cisbio cAMP Gs dynamic kit, HTRF); assay type: cell-based; conditions: HEK293 cells with stable expression of human GLP-1, relative EC50, 10 nM human GLP-1 = 100% response
T1 construct: expressed in transfected cells
Experimental: Human GLP-1 agonizing activity was detected in HEK293 cells with stable expression of human GLP-1 by Cisbio cAMP Gs dynamic kit (Catalog #62AM4PEC) according to manufacturer's protocol. Briefly, cells were collected and resuspended in assay buffer containing 0.1% BSA and 0.5 mM of IBMX at concentration to 2.5×10^5 cells/mL. Two μL 5× compound solution and 8 μL cell suspension were added to each well of low-volume 384 white assay plate. After 30 min incubation at 37° C., 5 μL cAMP-d2 working solution and 5 μL anti-cAMP antibody-cryptate were added to each well, and incubate at room temperature for 1 hr. Series dilution of cAMP was used as standard. Human GLP-1 (7-37) was used as positive control and 10 nM human GLP-1 was set as 100% response. HTRF signals were read at 665 and 615 nm with EnVision plate reader and calculated cAMP concentration by intrapolation to the standard curve. The EC50 value of the tested compounds was calculated by fitting the dose response curve using a 4-parameter non-linear regression routine and relative EC50 was presented in Table S.

[2] = Liver microsome stability, human; assay type: in vitro ADME; conditions: human liver microsomes, NADPH, 37° C.
Experimental: (§1) Compounds of the present application was incubated with human or rat liver microsomes in the presence of NADPH at 37° C. The concentration of compound at pre-incubation and after 30 min incubation was quantified by LC-MS. The percentage of remaining compound was then calculated and indicative of microsome stability of each compound.

[3] = Liver microsome stability, rat; assay type: in vitro ADME; conditions: rat liver microsomes, NADPH, 37° C.
Experimental: as §1

[4] = IV 1 mg/kg, read-out: IV parameters AUC0-inf
[5] = PO 5 mg/kg, 0.50% MC, read-out: PO parameters AUC0-inf

T1 sequence (P43220 24-463): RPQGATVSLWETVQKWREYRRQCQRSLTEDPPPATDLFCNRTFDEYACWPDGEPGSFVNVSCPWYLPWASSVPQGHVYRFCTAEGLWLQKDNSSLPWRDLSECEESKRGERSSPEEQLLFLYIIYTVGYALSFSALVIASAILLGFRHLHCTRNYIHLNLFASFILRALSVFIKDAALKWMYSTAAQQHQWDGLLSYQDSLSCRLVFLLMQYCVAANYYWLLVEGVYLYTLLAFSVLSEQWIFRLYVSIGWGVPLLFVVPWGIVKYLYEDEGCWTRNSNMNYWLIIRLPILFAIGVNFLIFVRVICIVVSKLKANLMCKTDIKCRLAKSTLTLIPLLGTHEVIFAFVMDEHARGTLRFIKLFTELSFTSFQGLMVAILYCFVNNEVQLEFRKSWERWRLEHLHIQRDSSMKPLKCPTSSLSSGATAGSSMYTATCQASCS

| Structure (SMILES) | AUC(0-inf) [1, 4] [ng·h/mL] | clearance ([1]; IV 1 mg/kg) [mL/min/kg] | AUC(0-inf) [1, 5] [ng·h/mL] | bioavailability ([1]; PO 5 mg/kg) [%] | EC50 (human GLP-1) [nM] | Human (% remaining @ 30 min) [2] [%] | Rat (% remaining @ 30 min) [3] [%] |
| --- | --- | --- | --- | --- | --- | --- | --- |
| C[C@]1(c2ccc(Cl)cc2F)Oc2cccc(-c3ccc(Cc4nc5ccc(C(=O)O)cc5n4C[C@@H]4CCO4)cc3)c2O1 (single isomer, unassigned) [Compound 19] | 3380 | 5.5 | 4410 | 26.1 | < 20 |  |  |
| O=C(O)c1ccc2nc(C[C@H]3CC[C@H](c4cccc(OCc5ccc(Cl)cc5F)n4)CO3)n(Cc3cncs3)c2c1 (single isomer, unassigned) [Compound 28] | 588 | 28.8 | 526 | 21.7 | < 20 |  |  |
| C[C@@]1(c2ccc(Cl)cn2)Oc2cccc(C3=CC[C@H](Cc4nc5ccc(C(=O)O)cc5n4C[C@@H]4CCO4)OC3)c2O1 (single isomer, unassigned) [Compound 78] |  |  |  |  | < 20 | >75 | >75 |
| O=C(O)c1ccc2nc(CC34CCC(c5ccnc(OCc6ccc(Cl)cc6F)n5)(CC3)CO4)n(C[C@@H]3CCO3)c2c1 [Compound 35, (S)-2-((4-(2-((4-chloro-2-fluorobenzyl)oxy)pyrimidin-4-yl)-2-oxabicyclo[2.2.2]octan-1-yl)methyl)-1-(oxetan-2-ylmethyl)-1H-benzo[d]imidazole-6-carboxylic acid] |  |  |  |  | > 100 |  |  |
| N#Cc1ccc(COc2cccc(C34CCC(Cc5nc6ccc(C(=O)O)cc6n5C[C@@H]5CCO5)(CC3)OC4)n2)c(F)c1 [Compound 36, (S)-2-((4-(6-((4-cyano-2-fluorobenzyl)oxy)pyridin-2-yl)-2-oxabicyclo[2.2.2]octan-1-yl)methyl)-1-(oxetan-2-ylmethyl)-1H-benzo[d]imidazole-6-carboxylic acid] |  |  |  |  | > 100 |  |  |
| N#Cc1ccc(COc2cccc(N3CCC(Oc4nc5ccc(C(=O)O)cc5n4C[C@@H]4CCO4)CC3)n2)c(F)c1 [Compound 80, (S)-2-((1-(6-((4-cyano-2-fluorobenzyl)oxy)pyridin-2-yl)piperidin-4-yl)oxy)-1-(oxetan-2-ylmethyl)-1H-benzo[d]imidazole-6-carboxylic acid] |  |  |  |  | > 100 |  |  |
| O=C(O)c1ccc2nc(CCN3CC(c4cccc(OCc5ccc(Cl)cc5F)n4)C3)n(C[C@@H]3CCO3)c2c1 [Compound 82, (S)-2-(2-(3-(6-((4-chloro-2-fluorobenzyl)oxy)pyridin-2-yl)azetidin-1-yl)ethyl)-1-(oxetan-2-ylmethyl)-1H-benzo[d]imidazole-6-carboxylic acid] |  |  |  |  | 20 to 100 |  |  |

The remaining lines, values ahead:

| AUC(0-inf) [1, 4] [ng·h/mL] | clearance ([1]; IV 1 mg/kg) [mL/min/kg] | AUC(0-inf) [1, 5] [ng·h/mL] | bioavailability ([1]; PO 5 mg/kg) [%] | EC50 (human GLP-1) [nM] | Human (% remaining @ 30 min) [2] [%] | Rat (% remaining @ 30 min) [3] [%] | Structure (SMILES) |
| --- | --- | --- | --- | --- | --- | --- | --- |
| 1760 | 9.7 | 3190 | 36.3 | < 20 | >75 | >75 | C[C@@]1(c2ccc(Cl)cc2F)Oc2cccc(C3=CC[C@@H](Cc4nc5ccc(C(=O)O)cc5n4C[C@@H]4CCO4)OC3)c2O1 (single isomer, unassigned) [Compound 100] |
|  |  |  |  | < 20 | >75 | >75 | C[C@]1(c2ccc(Cl)cc2F)Oc2cccc(C3=CC[C@@H](Cc4nc5ccc(C(=O)O)nc5n4C[C@@H]4CCO4)OC3)c2O1 (single isomer, unassigned) [Compound 108] |
|  |  |  |  | < 20 | >75 | >75 | C[C@]1(c2ccc(Cl)cc2F)Oc2cccc(C3=CC[C@@H](Cc4nc5c(F)cc(C(=O)O)cc5n4C[C@@H]4CCO4)OC3)c2O1 (single isomer, unassigned) [Compound 110] |
|  |  |  |  | < 20 | >75 | >75 | C[C@]1(c2ccc(Cl)cn2)Oc2cccc(C3=CC[C@H](Cc4nc5c(F)cc(C(=O)O)cc5n4C[C@@H]4CCO4)OC3)c2O1 (single isomer, unassigned) [Compound 118] |
